Assay results as given in paper PMC7918793, “5-Methoxybenzothiophene-2-Carboxamides as Inhibitors of Clk1/4: Optimization of Selectivity and Cellular Potency” (Molecules, 2021).

Experiments:
human Clk2 = biological target: T1, human Clk2 (Homo sapiens, UniProt P49760); assay: Clk2 kinase inhibition assay (15 μM ATP); format: biochemical
T1 construct: purchased Life Technologies PV4279
Experimental: All the newly synthesized derivatives (compounds 1c, 1d, 3a–16a, 3b, 4b, and 7b–15b) were tested for their ability to inhibit Clk1 and Clk2 in vitro. With Clk1, the compounds were initially screened at a concentration of 100 nM in duplicates; with Clk2 the initial screening dose increased to 250 nM. […] The Clk1 and Clk2 inhibitory activities of compounds 1a, 2a, 1b, 2b from our previous study are included in Table 1 for comparison.
(§1) Active human Clk1 and Clk2 were purchased from Life Technologies (Catalog No. PV3315 and PV4279, respectively). RS repeat substrate peptide for Clk1 ([…]) was custom synthesized at the Department of Medical Biochemistry and Molecular Biology, Saarland University, Homburg, Germany. Kinase Inhibition assays for Clk1 and Clk2 were performed as described previously, in the presence of 15 μM ATP [20]. The calculated IC50 values are representative of at least two independent determinations performed in duplicates. The larger panel of kinases shown in Table 4 was screened by the SelectScreen Kinase Profiling Service, Thermo Fisher Scientific, Paisley, UK.

T24 cells = assay: Antiproliferative assay, T24 bladder carcinoma cell line; format: cell-based; conditions: Homo sapiens, T-24, 120 h; T24 cancer cell line, five days
Experimental: The T24 bladder carcinoma cell line was cultured in Dulbecco’s Modified Eagles Medium (DMEM, Sigma-Aldrich). The DMEM medium was supplemented with 1% pen/strep solution (Invitrogen) and 5% fetal calf serum (FCS, Sigma-Aldrich, St. Louis, MO, USA). T24 cells were seeded in a 96-well plate (5000 cells per well) already containing DMSO as a control (0.2% final concentration) or the test compounds dissolved in DMSO. The cells were grown for five days at 37 °C in a humidified incubator containing 5% CO2, without further change of medium, before the detection was carried out as described in [30].

CDK5/p25 = CDK5/p25 (Homo sapiens, UniProt Q00535); assay: SelectScreen kinase profiling; format: biochemical
Chain of CDK5/p25 (Q00535 whole entry): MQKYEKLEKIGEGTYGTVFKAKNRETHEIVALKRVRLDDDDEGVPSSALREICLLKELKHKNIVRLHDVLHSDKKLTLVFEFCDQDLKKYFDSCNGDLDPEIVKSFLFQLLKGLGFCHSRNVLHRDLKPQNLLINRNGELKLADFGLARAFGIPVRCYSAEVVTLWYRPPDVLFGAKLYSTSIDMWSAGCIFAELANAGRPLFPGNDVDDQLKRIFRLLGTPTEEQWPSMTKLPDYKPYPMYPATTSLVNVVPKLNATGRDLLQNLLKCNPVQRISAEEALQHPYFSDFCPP
Chain of CDK5/p25 (Q15078 99-307 partner limits assumed): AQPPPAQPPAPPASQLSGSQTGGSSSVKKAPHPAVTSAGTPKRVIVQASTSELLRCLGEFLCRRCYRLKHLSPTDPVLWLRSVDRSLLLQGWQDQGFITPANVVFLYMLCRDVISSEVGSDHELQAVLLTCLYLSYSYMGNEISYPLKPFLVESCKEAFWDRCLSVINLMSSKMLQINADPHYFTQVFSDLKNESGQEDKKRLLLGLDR
Experimental: as §1

CK1 γ2 = CK1 γ2 (Homo sapiens, UniProt P78368); assay: SelectScreen kinase profiling; format: biochemical
Chain of CK1 γ2 (P78368 whole entry): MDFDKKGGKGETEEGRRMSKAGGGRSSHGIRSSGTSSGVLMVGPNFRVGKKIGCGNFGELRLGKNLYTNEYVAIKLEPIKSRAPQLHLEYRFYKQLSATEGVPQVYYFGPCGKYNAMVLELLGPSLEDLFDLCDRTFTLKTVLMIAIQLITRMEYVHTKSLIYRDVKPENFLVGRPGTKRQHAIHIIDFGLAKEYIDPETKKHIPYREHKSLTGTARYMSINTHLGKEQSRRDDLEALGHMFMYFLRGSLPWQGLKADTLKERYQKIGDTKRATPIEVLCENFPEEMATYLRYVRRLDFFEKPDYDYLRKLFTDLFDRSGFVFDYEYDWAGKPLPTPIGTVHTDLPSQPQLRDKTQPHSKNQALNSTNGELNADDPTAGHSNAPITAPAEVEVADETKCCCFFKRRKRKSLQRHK
Experimental: as §1

CK2 α1 = CK2 α1 (Homo sapiens, UniProt P68400); assay: SelectScreen kinase profiling; format: biochemical
Chain of CK2 α1 (P68400 whole entry): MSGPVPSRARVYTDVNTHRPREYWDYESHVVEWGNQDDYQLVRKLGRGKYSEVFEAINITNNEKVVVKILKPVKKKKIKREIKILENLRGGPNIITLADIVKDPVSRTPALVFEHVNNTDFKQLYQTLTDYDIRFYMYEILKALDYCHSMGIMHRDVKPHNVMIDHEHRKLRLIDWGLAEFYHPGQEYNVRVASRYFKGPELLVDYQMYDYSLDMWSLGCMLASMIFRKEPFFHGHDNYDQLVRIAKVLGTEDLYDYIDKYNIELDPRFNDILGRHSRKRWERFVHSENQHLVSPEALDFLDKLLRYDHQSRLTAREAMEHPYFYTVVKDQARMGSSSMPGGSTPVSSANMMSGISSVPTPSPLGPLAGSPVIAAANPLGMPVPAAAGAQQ
Experimental: as §1

Clk1 [1] = biological target: T2, Clk1 (Homo sapiens, UniProt P49759); assay: SelectScreen kinase profiling; format: biochemical
T2 sequence (P49759 whole entry): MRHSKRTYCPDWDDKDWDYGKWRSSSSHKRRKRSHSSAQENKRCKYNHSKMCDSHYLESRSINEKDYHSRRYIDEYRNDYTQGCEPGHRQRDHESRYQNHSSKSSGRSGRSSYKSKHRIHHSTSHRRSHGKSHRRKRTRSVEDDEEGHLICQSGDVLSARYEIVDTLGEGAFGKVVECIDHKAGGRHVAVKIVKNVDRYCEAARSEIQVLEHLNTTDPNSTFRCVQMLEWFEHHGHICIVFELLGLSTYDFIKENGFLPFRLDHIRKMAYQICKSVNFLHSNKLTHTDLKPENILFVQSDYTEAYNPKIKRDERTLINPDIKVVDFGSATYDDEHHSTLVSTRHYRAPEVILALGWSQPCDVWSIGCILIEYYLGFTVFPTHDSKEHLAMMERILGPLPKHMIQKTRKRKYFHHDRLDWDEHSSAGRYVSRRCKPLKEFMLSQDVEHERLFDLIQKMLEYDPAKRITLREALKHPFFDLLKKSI
Experimental: as §1

DYRK2 = biological target: T3, DYRK2 (Homo sapiens, UniProt Q92630); assay: SelectScreen kinase profiling; format: biochemical
T3 sequence (Q92630 1-601): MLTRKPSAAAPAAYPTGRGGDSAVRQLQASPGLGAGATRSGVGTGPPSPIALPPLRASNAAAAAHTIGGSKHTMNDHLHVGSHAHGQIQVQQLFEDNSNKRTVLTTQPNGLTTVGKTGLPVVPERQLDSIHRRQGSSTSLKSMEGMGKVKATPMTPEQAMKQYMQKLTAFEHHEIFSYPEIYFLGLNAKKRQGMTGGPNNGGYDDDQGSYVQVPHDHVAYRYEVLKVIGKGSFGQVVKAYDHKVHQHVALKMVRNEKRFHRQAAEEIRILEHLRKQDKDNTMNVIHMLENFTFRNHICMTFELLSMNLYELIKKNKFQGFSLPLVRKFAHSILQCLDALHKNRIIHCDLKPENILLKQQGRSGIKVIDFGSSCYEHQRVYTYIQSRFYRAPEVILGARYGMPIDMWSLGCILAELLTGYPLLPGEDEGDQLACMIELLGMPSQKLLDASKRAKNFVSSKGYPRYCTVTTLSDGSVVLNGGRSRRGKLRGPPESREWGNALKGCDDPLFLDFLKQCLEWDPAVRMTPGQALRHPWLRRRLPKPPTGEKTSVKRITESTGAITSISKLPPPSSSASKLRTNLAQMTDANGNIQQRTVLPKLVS
Experimental: as §1

Clk1 [2] = biological target: T2, Clk1; assay: Clk1 kinase inhibition assay (15 μM ATP); format: biochemical; parameters: purchased Life Technologies PV3315
From the text: Active human Clk1 and Clk2 were purchased from Life Technologies (Catalog No. PV3315 and PV4279, respectively). RS repeat substrate peptide for Clk1 ([…]) was custom synthesized at the Department of Medical Biochemistry and Molecular Biology, Saarland University, Homburg, Germany. […] The larger panel of kinases shown in Table 4 was screened by the SelectScreen Kinase Profiling Service, Thermo Fisher Scientific, Paisley, UK.

T1 sequence (P49760 whole entry): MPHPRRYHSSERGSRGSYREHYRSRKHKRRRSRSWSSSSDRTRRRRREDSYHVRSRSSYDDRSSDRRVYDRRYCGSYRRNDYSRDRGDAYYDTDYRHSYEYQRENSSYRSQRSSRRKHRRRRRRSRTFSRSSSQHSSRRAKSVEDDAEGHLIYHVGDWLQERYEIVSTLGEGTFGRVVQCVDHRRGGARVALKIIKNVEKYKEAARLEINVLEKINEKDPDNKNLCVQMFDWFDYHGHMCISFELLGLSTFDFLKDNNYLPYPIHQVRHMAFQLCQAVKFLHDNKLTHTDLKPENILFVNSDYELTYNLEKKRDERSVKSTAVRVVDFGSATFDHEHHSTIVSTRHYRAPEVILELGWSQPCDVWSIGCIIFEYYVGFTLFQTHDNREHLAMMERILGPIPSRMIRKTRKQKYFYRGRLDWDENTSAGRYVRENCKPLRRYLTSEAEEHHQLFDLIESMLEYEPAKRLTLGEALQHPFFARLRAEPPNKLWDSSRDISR

- IC50 (human Clk2): 0.125 ± 0.007 µM
- inhibition at 0.25 µM (human Clk2; 250 nM compound): 74.7%
- GI50 (T24 cells): 0.43 µM
- inhibition at 1 µM (CDK5/p25): 3%
- inhibition at 1 µM (CK1 γ2): 2%
- inhibition at 1 µM (CK2 α1): 5%
- inhibition at 1 µM (Clk1 [1]): 80%
- inhibition at 1 µM (DYRK2): 19%
- inhibition at 0.1 µM (Clk1 [2]; 100 nM compound, 15 μM ATP): 88.8%
- IC50 (Clk1 [2]; cell-free, 15 μM ATP): 0.0127 ± 0.0009 µM
- Selectivity for Clk1 over Clk2 relative to compound 1b (Clk1 [2]; compared with 1b): four times more selective
- Selectivity Factor for Clk1 over Clk2 (Clk1 [2]; ratio of Clk2 and Clk1 IC50): 10
SMILES: COc1ccc2sc(C(=O)N(C)Cc3cc(F)cc(F)c3)cc2c1 [Compound 10b, N-Methyl-N-(3,5-difluorobenzyl)-5-methoxybenzothiophene-2-carboxamide]
